Measured values published in the supplement of paper PMC10307832.

Key:
Test in all cases: relative viability (nuclei count vs DMSO), 5 days (fraction); higher = more cells survive
[1] = compound: C(C(=O)C(=O)O)Br [Bromopyruvate] + CCNC(=O)c1noc(-c2cc(C(C)C)c(O)cc2O)c1-c1ccc(CN2CCOCC2)cc1 [Luminespib] (partner 0.01 µM)
Outline: (§1)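 For relative viability, nuclei counts in treated wells were divided by those in vehicle wells. Lung cancer cell lines had been pin-tool dosed in 1536-well plates the day after seeding and cultured for 5 days, then fixed and stained in one step (final 0.05% Triton X-100, 1% formaldehyde, 1 ug/ml Hoechst) and imaged at 4×. Doses were one drug alone or a fixed anchor-drug dose plus five library-drug doses (not always all listed) in √10 steps, and values are duplicate-plate medians.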

[2] = compound: C(C(=O)C(=O)O)Br [Bromopyruvate] + COc1cccc2cc(-c3nc([C@H]4CC[C@H](C(=O)O)CC4)n4ncnc(N)c34)[nH]c12 [OSI-027] (partner 0.5 µM)
Outline: as §1

[3] = compound: C(C(=O)C(=O)O)Br [Bromopyruvate] + Cc1nc(Nc2ncc(C(=O)Nc3c(C)cccc3Cl)s2)cc(N2CCN(CCO)CC2)n1 [Dasatinib] (partner 0.075 µM)
Outline: as §1

[4] = compound: C(C(=O)C(=O)O)Br [Bromopyruvate] + Cc1cc(Nc2cc(N3CCN(C)CC3)nc(Sc3ccc(NC(=O)C4CC4)cc3)n2)n[nH]1 [Tozasertib] (partner 0.1 µM)
Outline: as §1

Cell Line: UMC-11
- relative viability ([1]; first compound 1 µM): 0.959
- relative viability ([1]; first compound 3.162 µM): 0.998
- relative viability ([1]; first compound 10 µM): 0.987
- relative viability ([1]; first compound 31.62 µM): 1.05
- relative viability ([1]; first compound 100 µM): 1.06
- relative viability ([2]; first compound 1 µM): 0.518
- relative viability ([2]; first compound 3.162 µM): 0.452
- relative viability ([2]; first compound 10 µM): 0.491
- relative viability ([2]; first compound 31.62 µM): 0.533
- relative viability ([2]; first compound 100 µM): 0.501
- relative viability ([3]; first compound 1 µM): 0.504
- relative viability ([3]; first compound 3.162 µM): 0.497
- relative viability ([3]; first compound 10 µM): 0.484
- relative viability ([3]; first compound 31.62 µM): 0.433
- relative viability ([3]; first compound 100 µM): 0.495
- relative viability ([4]; first compound 1 µM): 0.201
- relative viability ([4]; first compound 3.162 µM): 0.196
- relative viability ([4]; first compound 10 µM): 0.188
- relative viability ([4]; first compound 31.62 µM): 0.208
- relative viability ([4]; first compound 100 µM): 0.213
